Data from PubChem BioAssay AID296 (DTP/NCI, 2004).
Inconclusive results are not listed.

System: MX-1 breast xenograft, nude mice, tumor weight T/C
Experiment: NCI In Vivo Anticancer Drug Screen. Data for tumor model Human Mammary Carcinoma MX-1 Xenograft (intrarenal inoculation) in NU/NU Swiss (nude) mice
Conditions: endpoint: mean tumor weight change, higher = larger tumour
Procedure, shortened: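 Activity is given as a ratio, with each measurement in the compound-treated arm divided by the matching measurement in vehicle-dosed controls. Tumour size or survival serves as the measured parameter.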

[1] = dose: 200.0 mg/kg/injection, schedule: Q04DX003 (sc), vehicle: saline with Tween-80
[2] = dose: 400.0 mg/kg/injection, schedule: Q04DX003 (sc), vehicle: saline with Tween-80
[3] = dose: 800.0 mg/kg/injection, schedule: Q04DX003 (sc), vehicle: saline with Tween-80
[4] = dose: 600.0 mg/kg/injection, schedule: Q04DX003 (sc), vehicle: saline with Tween-80
[5] = dose: 1200.0 mg/kg/injection, schedule: Q04DX003 (sc), vehicle: saline with Tween-80
[6] = dose: 2400.0 mg/kg/injection, schedule: Q04DX003 (sc), vehicle: saline with Tween-80
[7] = dose: 12.5 mg/kg/injection, schedule: Q04DX003 (sc), vehicle: suspension in saline

Question: `CCN1/C(=C/C=C/C=C\C=C\c2sc3ccc4ccccc4c3[n+]2CC)Sc2ccc3ccccc3c21` was tested. Which T/C (dose: 100.0 mg/kg/injection, schedule: Q04DX003 (sc), vehicle: saline with Tween-80) did it give?
Answer: 104 % of control

Question: What about the T/C [1] of the same molecule?
Answer: 89 % of control

Question: What about the T/C [2] of the same molecule?
Answer: 101 % of control

Question: And the T/C [3]?
Answer: 93 % of control

Question: What does the source list for `C1CCC2OCCOCCOC3CCCCC3OCCOCCOC2C1` (centres undefined)?
Answer: T/C (dose: 9.38 mg/kg/injection, schedule: Q04DX003 (sc), vehicle: Klucel (hydroxypropylcellulose) (HPC)): 62 % of control; T/C (dose: 18.75 mg/kg/injection, schedule: Q04DX003 (sc), vehicle: Klucel (hydroxypropylcellulose) (HPC)): 87 % of control; T/C (dose: 37.5 mg/kg/injection, schedule: Q04DX003 (sc), vehicle: Klucel (hydroxypropylcellulose) (HPC)): 64 % of control; T/C (dose: 75.0 mg/kg/injection, schedule: Q04DX003 (sc), vehicle: Klucel (hydroxypropylcellulose) (HPC)): 46 % of control

Question: For `CC1=C(/C=C/C(C)=C/C=C/C(C)=C/CO)C(C)(C)CCC1`, which T/C [1] is on record?
Answer: 89 % of control

Question: And the T/C [2]?
Answer: 112 % of control

Question: What about the T/C [3] of the same molecule?
Answer: 84 % of control

Question: And the T/C (dose: 1600.0 mg/kg/injection, schedule: Q04DX003 (sc), vehicle: saline with Tween-80)?
Answer: 96 % of control

Question: For `COc1cc2c(c(OC)c1OC)-c1ccc(OC)c(=O)cc1[C@@H](NC(=O)CCl)CC2`, which T/C (dose: 1.25 mg/kg/injection, schedule: Q04DX003 (sc), vehicle: saline with Tween-80) is on record?
Answer: 90 % of control

Question: And the T/C (dose: 2.5 mg/kg/injection, schedule: Q04DX003 (sc), vehicle: saline with Tween-80)?
Answer: 64 % of control

Question: And the T/C (dose: 5.0 mg/kg/injection, schedule: Q04DX003 (sc), vehicle: saline with Tween-80)?
Answer: 21 % of control

Question: What about the T/C (dose: 10.0 mg/kg/injection, schedule: Q04DX003 (sc), vehicle: saline with Tween-80) of the same molecule?
Answer: -92 % of control

Question: Which results are given for `Cn1ccc(=Nc2ccc(NC(=O)c3ccc(N=c4ccn(C)c5ccc([N+](=O)[O-])cc45)cc3[N+](=O)[O-])cc2)cc1`?
Answer: T/C (dose: 300.0 mg/kg/injection, schedule: Q04DX003 (sc), vehicle: saline + Tween-80 + alcohol): 123 % of control; T/C (dose: 1200.0 mg/kg/injection, schedule: Q04DX003 (sc), vehicle: saline + Tween-80 + alcohol): 117 % of control; T/C (dose: 2400.0 mg/kg/injection, schedule: Q04DX003 (sc), vehicle: saline + Tween-80 + alcohol): 69 % of control

Question: Which results are given for `COc1cc2cc3c4cc(OC)c(OC)cc4cc[n+]3c(C)c2cc1OC` (tested in a mixture with another compound)?
Answer: T/C (dose: 75.0 mg/kg/injection, schedule: Q04DX003 (sc), vehicle: saline): 79 % of control; T/C (dose: 150.0 mg/kg/injection, schedule: Q04DX003 (sc), vehicle: saline): 60 % of control

Question: How did the T/C (dose: 10.0 mg/kg/injection, schedule: Q04DX003 (sc), vehicle: Klucel (hydroxypropylcellulose) (HPC)) turn out when `COC1C(C)OC(OC2CC(C)(O)Cc3cc4c(c(O)c32)C(=O)c2c(O)cc3c(c2C4=O)OC2OC3(C)C(O)C(N(C)C)C2O)C(OC)C1(C)OC` (centres undefined) was run?
Answer: 82 % of control

Question: And the T/C (dose: 20.0 mg/kg/injection, schedule: Q04DX003 (sc), vehicle: Klucel (hydroxypropylcellulose) (HPC))?
Answer: 94 % of control

Question: And the T/C (dose: 40.0 mg/kg/injection, schedule: Q04DX003 (sc), vehicle: Klucel (hydroxypropylcellulose) (HPC))?
Answer: 84 % of control

Question: And the T/C (dose: 80.0 mg/kg/injection, schedule: Q04DX003 (sc), vehicle: Klucel (hydroxypropylcellulose) (HPC))?
Answer: 76 % of control

Question: How did the T/C (dose: 4.0 mg/kg/injection, schedule: Q04DX003 (sc), vehicle: saline) turn out when `Cc1c(N)nc([C@H](CC(N)=O)NC[C@H](N)C(N)=O)nc1C(=O)N[C@H](C(=O)N[C@H](C)[C@@H](O)CC(=O)N[C@H](C(=O)NC(O[C@@H]1O[C@@H](C)[C@@H](N)[C@@H](O)[C@H]1O)C(O)c1nc(-c2nc(C(=O)NCCCCN)cs2)cs1)[C@@H](C)O)[C@@H](O[C@@H]1O[C@@H](CO)[C@@H](O)[C@H](O)[C@@H]1O[C@H]1O[C@H](CO)[C@@H](O)[C@H](OC(N)=O)[C@@H]1O)c1c[nH]cn1` (some centres undefined) was run?
Answer: 120 % of control

Question: And the T/C (dose: 8.0 mg/kg/injection, schedule: Q04DX003 (sc), vehicle: saline)?
Answer: 64 % of control

Question: What about the T/C (dose: 16.0 mg/kg/injection, schedule: Q04DX003 (sc), vehicle: saline) of the same molecule?
Answer: 64 % of control

Question: What about the T/C (dose: 32.0 mg/kg/injection, schedule: Q04DX003 (sc), vehicle: saline) of the same molecule?
Answer: 47 % of control

Question: `COCC1OC2OC3C(COC)OC(OC4C(COC)OC(OC5C(COC)OC(OC6C(COC)OC(OC7C(COC)OC(OC8C(COC)OC(OC1C(O)C2O)C(O)C8O)C(O)C7O)C(O)C6O)C(O)C5O)C(O)C4O)C(O)C3O` (centres undefined) (tested in a mixture with another compound) was tested. Which T/C (dose: 100.0 mg/kg/injection, schedule: Q04DX003 (sc), vehicle: Klucel (hydroxypropylcellulose) (HPC)) did it give?
Answer: 82 % of control

Question: What about the T/C (dose: 200.0 mg/kg/injection, schedule: Q04DX003 (sc), vehicle: Klucel (hydroxypropylcellulose) (HPC)) of the same molecule?
Answer: 96 % of control

Question: And the T/C (dose: 400.0 mg/kg/injection, schedule: Q04DX003 (sc), vehicle: Klucel (hydroxypropylcellulose) (HPC))?
Answer: 86 % of control

Question: What about the T/C (dose: 800.0 mg/kg/injection, schedule: Q04DX003 (sc), vehicle: Klucel (hydroxypropylcellulose) (HPC)) of the same molecule?
Answer: 76 % of control

Question: How did the T/C (dose: 300.0 mg/kg/injection, schedule: Q04DX003 (sc), vehicle: saline with Tween-80) turn out when `O=C(Nc1cccc2c(OC(=O)C(Cl)Cl)c(N=Nc3ccc(S(=O)(=O)Nc4nccs4)cc3)cc(N=Nc3ccc(S(=O)(=O)Nc4nccs4)cc3)c12)C(Cl)Cl` (tested in a mixture with another compound) was run?
Answer: 111 % of control

Question: And the T/C [4]?
Answer: 103 % of control

Question: What about the T/C [5] of the same molecule?
Answer: 109 % of control

Question: What about the T/C [6] of the same molecule?
Answer: 109 % of control

Question: Which T/C [7] does the source give for `CC1=CC2c3cccc4[nH]cc(c34)CC2N(C)C1` (centres undefined) here?
Answer: 153 % of control

Question: How did the T/C (dose: 75.0 mg/kg/injection, schedule: Q04DX003 (sc), vehicle: saline with Tween-80) turn out when `CC(Cc1ccc(O)cc1)NCC(O)c1ccc(O)c(O)c1` (centres undefined) was run?
Answer: 91 % of control

Question: And the T/C (dose: 150.0 mg/kg/injection, schedule: Q04DX003 (sc), vehicle: saline with Tween-80)?
Answer: 96 % of control

Question: And the T/C [4]?
Answer: 67 % of control

Question: What about the T/C [5] of the same molecule?
Answer: 82 % of control

Question: What about the T/C [6] of the same molecule?
Answer: 45 % of control

Question: What does the source list for `N=C(N)SCc1c2ccccc2c(CSC(=N)N)c2ccccc12`?
Answer: T/C (dose: 300.0 mg/kg/injection, schedule: Q04DX003 (sc), vehicle: suspension in saline): 93 % of control; T/C (dose: 600.0 mg/kg/injection, schedule: Q04DX003 (sc), vehicle: suspension in saline): 152 % of control; T/C (dose: 1200.0 mg/kg/injection, schedule: Q04DX003 (sc), vehicle: suspension in saline): 112 % of control; T/C (dose: 2400.0 mg/kg/injection, schedule: Q04DX003 (sc), vehicle: suspension in saline): 89 % of control

Question: `S=C(Nc1ccc(Cl)c(Cl)c1)N1c2ccccc2-n2cccc2C1c1cccnc1` (centres undefined) was tested. Which T/C (dose: 300.0 mg/kg/injection, schedule: Q04DX003 (sc), vehicle: Klucel (hydroxypropylcellulose) (HPC)) did it give?
Answer: 123 % of control

Question: What about the T/C (dose: 600.0 mg/kg/injection, schedule: Q04DX003 (sc), vehicle: Klucel (hydroxypropylcellulose) (HPC)) of the same molecule?
Answer: 89 % of control

Question: What about the T/C (dose: 1200.0 mg/kg/injection, schedule: Q04DX003 (sc), vehicle: Klucel (hydroxypropylcellulose) (HPC)) of the same molecule?
Answer: 108 % of control

Question: What about the T/C (dose: 2400.0 mg/kg/injection, schedule: Q04DX003 (sc), vehicle: Klucel (hydroxypropylcellulose) (HPC)) of the same molecule?
Answer: 108 % of control

Question: Which results are given for `CCN(CC)CC[n+]1ccc2c(C)c3[nH]c4ccc(O)cc4c3c(C)c2c1`?
Answer: T/C [7]: 82 % of control; T/C (dose: 25.0 mg/kg/injection, schedule: Q04DX003 (sc), vehicle: suspension in saline): 77 % of control

Question: Which results are given for `CCCCCn1c(C)cc(/C=C\c2ccc3cc(C)ccc3[n+]2C)c1C`?
Answer: T/C (dose: 0.38 mg/kg/injection, schedule: Q04DX003 (sc), vehicle: Klucel (hydroxypropylcellulose) (HPC)): 174 % of control; T/C (dose: 0.75 mg/kg/injection, schedule: Q04DX003 (sc), vehicle: Klucel (hydroxypropylcellulose) (HPC)): 62 % of control; T/C (dose: 1.5 mg/kg/injection, schedule: Q04DX003 (sc), vehicle: Klucel (hydroxypropylcellulose) (HPC)): 109 % of control; T/C (dose: 3.0 mg/kg/injection, schedule: Q04DX003 (sc), vehicle: Klucel (hydroxypropylcellulose) (HPC)): 74 % of control

Question: Which T/C (dose: 300.0 mg/kg/injection, schedule: Q04DX003 (ip), vehicle: saline with Tween-80) does the source give for `CCCCCCNc1nc(NCCCCCC)c2[nH]c(NCCCCCC)nc2n1` here?
Answer: 75 % of control

Question: For `O=C(/C=C(\Cl)C(=O)NO)NO`, which T/C (dose: 50.0 mg/kg/injection, schedule: Q04DX003 (sc), vehicle: saline) is on record?
Answer: 93 % of control

Question: And the T/C (dose: 100.0 mg/kg/injection, schedule: Q04DX003 (sc), vehicle: saline)?
Answer: 80 % of control

Question: And the T/C (dose: 200.0 mg/kg/injection, schedule: Q04DX003 (sc), vehicle: saline)?
Answer: 77 % of control

Question: Which T/C (dose: 200.0 mg/kg/injection, schedule: Q01DX010 (sc), vehicle: saline) does the source give for `Nc1n[nH]c(N)n1` here?
Answer: 92 % of control

Question: What about the T/C (dose: 400.0 mg/kg/injection, schedule: Q01DX010 (sc), vehicle: saline) of the same molecule?
Answer: 94 % of control

Question: What about the T/C (dose: 800.0 mg/kg/injection, schedule: Q01DX010 (sc), vehicle: saline) of the same molecule?
Answer: 111 % of control
